Test results taken from patent publication US20240189242A1, “LIPID NANOPARTICLE COMPOSITIONS AND METHODS OF FORMULATING THE SAME” (MODERNATX, INC., priority 2021, published 2024).

Legend:
Assay type in all cases: physicochemical
RNA [1] = test: percentage of IG in binary mixtures of RNA and ionizable lipid, ion pair reversed phase HPLC; conditions: for levels of IG: binary mixtures of RNA and Compound III with 1 mM agent, versus control; for initial rate of IG formation: Compound III binaries with 5 mM agent (FIG. 15)
Source text: To detect and quantify the amount of IG present in LNP formulations comprising polynucleotides and lipid, a protocol was developed (FIG. 2) that included (1) extraction of the polynucleotide molecules (e.g. precipitation, liquid:liquid extraction); (2) assessment of integrity (e.g. purity, length) of the isolated polynucleotides by known methods (e.g. fragment analyzer, gel electrophoresis); and (3) analysis of the isolated polynucleotides by HPLC.
(§1) RNA was extracted from the LNP formulation by precipitation in ammonium acetate in isopropanol; resuspended in water to target a final RNA concentration of 0.1 mg/mL; and assessed by fragment analyzer capillary electrophoresis and ion pair reversed phase HPLC (performed on a Thermo DNApac RP 100×2.1 mm column at 65° C., with mobile phases containing 50 mM dibutylammonium acetate and 100 mM triethylammonium acetate in water and acetonitrile). Elution with an acetonitrile gradient provided an RNA separation primarily driven by mRNA length and sensitive to any added hydrophobic elements. Two prominent peaks were apparent on the HPLC chromatogram (FIG. 2), including a “main peak” comprising non-adduct mRNA and an “IG” peak comprising mRNA with one or more covalent modifications. The mass fraction of RNA containing at least one lipid adduct was determined by integrating the area under the curve (AUC) of all RNA peaks (including products shorter than the full-length product, the full-length product, and the hydrophobic modified RNA) and taking the late-eluting region as an area percent of the total peak area.
Compound III was dissolved in ethanol at a concentration of 4 mg/mL, and the RNA diluted in sodium acetate buffer pH 5.5; the RNA and lipids were then mixed in 25% ethanol. Samples were held at 25° C., and the RNA was periodically extracted by precipitation in isopropanol and analyzed by ion pair reversed phase (FIGS. 5 and 6A, data marked by *).

RNA [2] = test: percentage of IG in LNPs buffered with PBS or Tris, HPLC
Experimental: as §1
To determine if different buffering conditions confer reductions in the percentage of IG formed in binary mixtures of RNA and Compound III, binary mixtures were prepared with RNA and Compound III and buffered with PBS or Tris at and the percentage of IG in the resulting binary mixtures was quantified according to the protocol detailed in Example 1. In brief, a single batch of LNPs was split mid-process into four aliquots, two of which were prepared in a final buffer of 1×PBS and the other two of which were prepared in a final buffer of 100 mM Tris-HCl pH 7.4. […]
To determine if different buffering conditions confer reductions in the percentage of IG formed in binary mixtures of RNA and Compound VI, binary mixtures were prepared with RNA and Compound VI and buffered PBS or Tris at and the percentage of IG in the resulting binary mixtures was quantified according to the protocol detailed in Example 1.

RNA [3] = test: percentage of IG in binary mixtures of RNA and ionizable lipid, ion pair reversed phase HPLC

For `O=C(O)CCCC[C@@H]1CCSS1` (racemic) [lipoic acid], the “levels of IG” value (RNA [1]; 25° C., after 18 hours) was “reduced levels of IG”.

`CCCCCCCCCCCOC(=O)CCCCCN(CCO)CCCCCCCC(=O)OC(CCCCCCCC)CCCCCCCC` [Compound III] was tested, and the “IG formation over time” value (RNA [1]; chromatographically purified Compound III (up to 99% purity, no detectable Compound III-N-oxide) and RNA) was “still formed IG over time”, the IG (RNA [1]; control binary mixtures of RNA and Compound III (Example 6), 25° C., after 3 days) was about 35% and the IG detected (RNA [1]; control binary mixtures of RNA and Compound III (Example 11), 25° C., after 18 hours) was about 20%. The “percentage of IG over time” value (RNA [2]; Compound III LNPs buffered with Tris and stored either at 5° C. or 20° C.) was “around 10%”, the “percentage of IG, Tris versus PBS” value (RNA [2]; Compound III LNPs, 100 mM Tris-HCl pH 7.4 (5° C., −20° C.) versus 1×PBS (5° C.)) was “lower in binary mixtures buffered with Tris compared to binary mixtures buffered with PBS” and the “percentage of IG over time” value (RNA [3]; binary mixtures with RNA) was “increased over time”. The IG (RNA [3]; control binary mixtures of RNA and Compound III (Example 5), after 0 days) was about 10%, the IG (RNA [3]; control binary mixtures of RNA and Compound III (Example 5), after 5 days) was about 40% and the IG (RNA [3]; control binary mixtures of RNA and Compound III (Example 5), after 25 days) was about 45%. For the same molecule, the IG (RNA [3]; control binary mixtures of RNA and Compound III (Example 6), 25° C., after 1 day) was about 15%, the IG (RNA [3]; control binary mixtures of RNA and Compound III (Example 6), 25° C., after 7 days) was about 40% and the IG detected (RNA [3]; control binary mixtures of RNA and Compound III (Example 7), 25° C., after 18 hours) was about 35%. For the same molecule, the IG detected (RNA [3]; control binary mixtures of RNA and Compound III, after 13 days of incubation at 25° C.) was about 45% and the “percentage IG detected” value (RNA [3]; mRNA and Compound III treated with higher concentrations of sodium metabisulfite (KDS), removed by dialysis with 20 mM Tris, t=0 h and 24 hours) was “reduced when treated with higher concentrations”.

In the case of `CCCCCCCCCN(CCCCCCCCC)CCN(CCCCCCCCC)CC(=O)N1CCN(C(=O)CN(CCCCCCCCC)CCCCCCCCC)CC1` [Compound VI], the “percentage of IG, Tris versus PBS” value (RNA [2]; Compound VI LNPs stored at 5° C., 20 mM Tris, 8% sucrose, pH 8 versus 1×PBS, pH 7.2) is reported as “lower in binary mixtures buffered with Tris compared to binary mixtures buffered with PBS”, the IG (RNA [3]; control binary mixtures of RNA and Compound VI, after 1 day) is reported as about 55% and the IG (RNA [3]; control binary mixtures of RNA and Compound VI, after 2 days) is reported as about 70%. The IG (RNA [3]; control binary mixtures of RNA and Compound VI, after 13 days) was about 80%.

For `Clc1ccc(C(c2ccc(Cl)cc2)C(Cl)(Cl)Cl)cc1` [DDT, dichlorodiphenyltrichloroethane], the “levels of IG” value (RNA [1]; 25° C., after 18 hours) was “reduced levels of IG”.

In the case of `O[C@H](CS)[C@@H](O)CS` [DTE, dithioerythritol], the “levels of IG” value (RNA [1]; 25° C., after 18 hours) is reported as “reduced levels of IG”.

`O[C@H](CS)[C@H](O)CS` [DTT, dithiothreitol] was tested, and the “levels of IG” value (RNA [1]; 25° C., after 18 hours) was “reduced levels of IG”.

For `CC(=O)N[C@@H](CS)C(=O)O` [N-acetyl cysteine], the “initial rate of IG formation” value (RNA [1]) was “effective at eliminating the fast initial rate of IG formation” and the “levels of IG” value (RNA [1]; 25° C., after 18 hours) was “reduced levels of IG”.

In the case of `O=C(O)CCP(CCC(=O)O)CCC(=O)O` [TCEP, tris(2-carboxyethyl)phosphine], the “levels of IG” value (RNA [1]; 25° C., after 18 hours) is reported as “reduced levels of IG”.

With `NCCSSCCN` [cystamine] the “levels of IG” value (RNA [1]; 25° C., after 18 hours) was “reduced levels of IG”.

With `N[C@@H](CCC(=O)N[C@@H](CS)C(=O)NCC(=O)O)C(=O)O` [glutathione] the “levels of IG” value (RNA [1]; 25° C., after 18 hours) was “reduced levels of IG”.

`N[C@@H](CCS)C(=O)O` [homo cysteine, homocysteine] was tested, and the “levels of IG” value (RNA [1]; 25° C., after 18 hours) was “reduced levels of IG”.

In the case of `O=S([O-])S(=O)(=O)[O-].[K+].[K+]` [potassium metabisulfite], the “initial rate of IG formation” value (RNA [1]) is reported as “effective at eliminating the fast initial rate of IG formation” and the “levels of IG” value (RNA [1]; 25° C., after 18 hours) is reported as “reduced levels of IG”.

With `[BH4-].[Na+]` [sodium borohydrate] the “levels of IG” value (RNA [1]; 25° C., after 18 hours) was “reduced levels of IG”.

In the case of `O=S([O-])S(=O)(=O)[O-].[Na+].[Na+]` [sodium metabisulfite], the “initial rate of IG formation” value (RNA [1]) is reported as “effective at eliminating the fast initial rate of IG formation”.

With `O=C([O-])CS.[Na+]` [sodium thioglycolate] the “levels of IG” value (RNA [1]; 25° C., after 18 hours) was “reduced levels of IG”.

For `O=S([O-])([O-])=S.[Na+].[Na+]` [sodium thiosulfate], the “levels of IG” value (RNA [1]; 25° C., after 18 hours) was “reduced levels of IG”.
